# Like-named read-outs stand apart in the source and are kept apart here.
# Tests used:
# [1] = system: diamond back moth; experiment: Insecticidal activity against diamond back moth in greenhouse (airbrush spraying of cabbage leaf discs); type: in vivo; settings: Plutella xylostella, foliar, 72 h, read-out: Mortality of diamond back moth (%)
# Description: (§1) Compounds were dissolved in mixed solvent (acetone:methanol=1:1), and diluted to required concentration with water containing 0.1% of tweed 80.
# The method of spraying by airbrush: The cabbage leaves were made into plates of 2 cm diameter by use of punch. A test solution (0.5 ml) was sprayed by airbrush at the pressure of 0.7 kg/cm^2 to both sides of every plate. 10 Second instar larvae were put into the petri-dishes after the leaf disc air-dried and 3 replicates were set for each treatment. Then the insects were maintained in observation room (25° C., 60˜70% R.H.), Scores were conducted and mortalities were calculated after 72 h.
# [2] = system: armyworm; experiment: Insecticidal activity against armyworm in greenhouse (airbrush spraying of corn leaf discs); type: in vivo; settings: 72 h; for control of the armyworm: 600 mg/L; for Mortality of armyworm (%) / mortality at 10 µg/mL / mortality at 100 µg/mL: parallel determination; for mortality at 10 µg/mL / mortality at 100 µg/mL: Mythimna separata, foliar
# Description: as §1
# The method of spraying by airbrush: The corn leaves were made into plates of 2 cm diameter by use of punch. A test solution (0.5 ml) was sprayed by airbrush at the pressure of 0.7 kg/cm^2 to both sides of every plate. 10 Second instar larvae were put into the Petri-dishes after the leaf disc air-dried and 3 replicates were set thr each treatment. Then the insects were maintained in observation room (25° C., 60˜70% R.H.). Scores were conducted and mortalities were calculated after 72 h.
# [3] = system: Prodenia litura; settings: 500 ppm; cited from earlier work
# [4] = system: Heliothis virescens; settings: 100 ppm; cited from earlier work
# [5] = system: beet armyworm; experiment: Insecticidal activity against beet armyworm (24 well-plate artificial diet emulsion method); type: in vivo; settings: Spodoptera exigua, 72 h, read-out: Mortality of beet armyworm (%)
# Description: as §1
# 24 well-plate artificial diet emulsion method: artificial food was added to each well of the 24 well-plate, after the artificial food was cooled, the prepared solution were added into the 24 well-plate according to the experimental design by order of chemical concentrations from low to high, by gently shaking the even emulsion film can be formed on the surface of the diet. 24 neat and healthy larvae were put into the 24 well-plate (one larvae each well) after the film was air-dried and 3 replicates were set for each treatment. Then the insects were maintained in observation room (25° C., 60˜70% R.H.). Scores were conducted and mortalities were calculated after 72 h.
# [6] = system: housefly; experiment: Insecticidal activity against housefly (diet incorporation test); type: in vivo; settings: Musca domestica, 72 h, read-out: Mortality of housefly (%)
# Description: Diet Incorporation Tests: the test compound was dissolved with 90% acetone to obtain the mother liquor after weigh accurately with an electronic balance. The required concentration solution was got by diluting to the mother liquor with a certain concentration milk powder solution according to the designed doses in the experiment. Then, the diluted concentration solution was evenly put into the petri dishes with diameter of 6 cm inside which filter paper was placed by using a transferring-liquid gun ([…], solution each petri dish). Finally the 3rd instars of larvae were put into petri dishes with 10 each petri dish, and 3 replicates were set for each treatment. Then the insects were maintained in observation room (25° C., 60˜70% R.H.). Scores were conducted and mortalities were calculated after 72 h.
# [7] = system: beet armyworm; experiment: Field trial against beet armyworm on cabbage; type: in vivo, Laphygma exigua; settings: 105 g a.i./hm^2, 10% EC
# Description: The trial was carried out in rain shelter area of experimental field of Wuhan vegetable research institute, the test crop is cabbage (variety: Jingfeng NO. 1). The dosage of the invention compound 1 (Example 11, 10% EC, same as below) are 75, 105, 150 g a.i./hm^2. and the comparative agent pyridalyl (10% EC, commercially available, same as below) is 105 g a.i./hm^2. The agent was applied on 9 Oct. 2011. The application tool is Linong 16HD-400 type backpack spray. Evenly spraying to whole cabbage which is in rosette stage was conducted. Beet armyworm is mainly larvae. The plot area is 25 m^2 and 4 replicates and randomized block arrangement were set. The amount of spray liquid is 750 L/hm^2. It was sunny and there was no wind, with the highest temperature of 28° C. and the lowest of 15° C. on the day of the application. Chosen 10 plants from each plot and scored the larvae at different instars at fixing time. The base number was investigated before treatment. The number of living larvae was counted after 1 day, 3 days, 7 days and 14 days respectively after application and control efficacy was calculated.
# (§2) Calculation Method: Decrease rate of insects (%)=(the number of insects before application−the number of insects after application) the number of insects before application×100 Control efficacy (%)=(decrease rate of insects in treated area decrease rate of insects in blank comparative area)/(100−decrease rate of insects in blank comparative area)×100
# [8] = system: diamond back moth; experiment: Field trial against diamond back moth on cabbage; type: in vivo, Plutella xylostella; settings: 105 g a.i./hm^2, 10% EC
# Description: as §2
# The trial was carried out in the test filed of Shenyang Research Institute of Chemical industry Ltd. The trial crop is cabbage (Variety: Zhonggan NO 8.). The dosage of the compound 1 are 75, 105, 150 g a.i./hm^2 and comparative agent pyridalyl is 105 g a.i./hm^2. The agent was applied once on 13 Jun. 2011. The application tool is Shandongweishi WS-16P type backpack manual sprayer. Evenly spraying to whole cabbage which is in rosette stage was conducted. Diamond back moth is originated at the peak time. The plot area is 10 m^2, 3 replicates and randomized block arrangement were set. The amount of spray liquid is 750 L/hm^2. It was sunny with the highest temperature of 29° C., and the lowest of 17° C. on the day of the application of the spray. The methods of investigation and calculation are the same as Example 13.
# [9] = system: cabbage butterfly (Pierisrapae Linne); experiment: Field trial against cabbage butterfly; type: in vivo; settings: 105 g a.i./hm^2, 10% EC
# Description: as §2
# The trial was carried out in a farmer's vegetable field in Xiangcheng District Suzhou City. The variety of the cabbage is Xinxia 50. The dosage of the compound 1 are 75, 105, 150 g a.i./hm^2 and the comparative agent pyridalyl is 105 g a.i./hm^2. The agent was applied on 26 May 2011. The application tool is Singaporean Linong HD-400 type backpack spray. Evenly spraying to whole cabbage which is at vegetative growth phase was conducted, Cabbage butterfly is at a peak time of 1-3 instars of larvae. The plot area is 15 m^2, 4 replicates and randomized block arrangement were set. The amount of spray liquid is 750 L/hm^2. It was from sunny to cloudy with the highest temperature of 22.6° C., and the lowest of 17.8° C. on the day of the application of the spray. Chosen 10 plants from each plot and scored the larvae at different instars at fixing time. The base number was investigated before treatment. The number of living larvae was counted after 1 day, 4 days, 7 days and 12 days respectively after application and control efficacy was calculated.
# Calculation method: the same as Example 13.
# [10] = 6.25 mg/L, parallel determination
# [11] = 25 mg/L, parallel determination
# [12] = 50 mg/L, parallel determination
smiles,measurement,setting,value
FC(F)(F)c1cnc(Oc2ccc(OCCCOc3c(Cl)cc(OCC=C(Cl)Cl)cc3Cl)cc2)c(Cl)c1 [Compound 2],mortality at 6.25 µg/mL,[1]; [10],75%
same,mortality at 25 µg/mL,[1]; [11],100%
same,mortality at 50 µg/mL,[1]; [12],100%
Fc1cc(Cl)cnc1Oc1ccc(OCCCOc2c(Cl)cc(OCC=C(Cl)Cl)cc2Cl)cc1 [Compound 3],control of the armyworm,[2],100%
ClC(Cl)=CCOc1cc(Cl)c(OCCCOc2ccc(Oc3nc(Cl)c(Cl)cc3Cl)cc2)c(Cl)c1 [Compound 11],control of the armyworm,[2],100%
ClC(Cl)=CCOc1cc(Cl)c(OCCCOc2ccc(Oc3ccccc3)cc2)c(Cl)c1 [Compound 38],control of the armyworm,[2],100%
CC(C)(C)n1ncc(Oc2ccc(OCCCOc3c(Cl)cc(OCC=C(Cl)Cl)cc3Cl)cc2)c(Cl)c1=O [Compound 57],control of the armyworm,[2],100%
Fc1cccc(Cl)c1COc1ccc(OCCCOc2c(Cl)cc(OCC=C(Cl)Cl)cc2Cl)cc1 [Compound 72],control of the armyworm,[2],100%
ClC(Cl)=CCOc1cc(Cl)c(OCCCOc2ccc(OCc3cnc(Cl)s3)cc2)c(Cl)c1 [Compound 80],control of the armyworm,[2],100%
FC(F)(F)c1ccc(Oc2ccc(OCCCOc3ccc(OCC=C(Cl)Cl)cc3Cl)cc2)nc1 [Compound 83],control of the armyworm,[2],100%
FC(F)(F)c1cnc(Oc2ccc(OCCCOc3ccc(OCC=C(Cl)Cl)cc3Cl)cc2)c(Cl)c1 [Compound 84],control of the armyworm,[2],100%
FC(F)(F)c1ccc(Oc2ccc(OCCCOc3c(Cl)cc(OCC=C(Cl)Cl)c(Cl)c3Cl)cc2)nc1 [Compound 117],Mortality of armyworm (%),[2]; 10 mg/L,100%
same,Mortality of armyworm (%),[2]; 100 mg/L,100%
same,control of the armyworm,[2],100%
FC(F)(F)c1cnc(Oc2ccc(OCCCOc3c(Cl)cc(OCC=C(Cl)Cl)c(Cl)c3Cl)cc2)c(Cl)c1 [Compound 118],control of the armyworm,[2],100%
ClC(Cl)=CCOc1cc(Cl)c(OCCCOc2ccc(Oc3nc4ccc(Cl)cc4o3)cc2)c(Cl)c1 [Compound 219],control of the armyworm,[2],100%
same,mortality at 10 µg/mL,[2]; 10 mg/L,70%
same,mortality at 100 µg/mL,[2]; 100 mg/L,100%
"FC(F)(F)c1cnc(Oc2ccc(OCCCOc3c(Cl)cc(OCC=C(Cl)Cl)cc3Cl)cc2Cl)c(Cl)c1 [Compound D-1, reference compound]",mortality at 6.25 µg/mL,[1]; [10],0%
same,mortality at 25 µg/mL,[1]; [11],30%
same,mortality at 50 µg/mL,[1]; [12],80%
same,mortality at 10 µg/mL,[2]; 10 mg/L,30%
same,mortality at 100 µg/mL,[2]; 100 mg/L,90%
same,control against Prodenia litura,[3],above 80%
same,control on Heliothis virescens,[4],above 80%
"FC(F)(F)c1ccc(OCCCOc2c(Cl)cc(OCC=C(Cl)Cl)cc2Cl)nc1 [Compound D-2, pyridalyl, reference compound]",mortality at 6.25 µg/mL,[1],50%
same,mortality at 25 µg/mL,[1],75%
same,mortality at 50 µg/mL,[1],90%
same,mortality at 2.5 µg/mL,[5],16.7%
same,mortality at 10 µg/mL,[5],100%
same,mortality at 10 µg/mL,[6],0%
same,mortality at 20 µg/mL,[6],25%
same,Control efficiency (%),[7]; 1 day after treatment,70.76%
same,Control efficiency (%),[7]; 3 days after treatment,83.34%
same,Control efficiency (%),[7]; 7 days after treatment,78.33%
same,Control efficiency (%),[7]; 14 days after treatment,61.21%
same,Control efficacy (%),[8]; 1 day after treatment,95.1%
same,Control efficacy (%),[8]; 3 days after treatment,97.0%
same,Control efficacy (%),[8]; 7 days after treatment,94.9%
same,Control efficiency (%),[9]; 1 day after treatment,49.7%
same,Control efficiency (%),[9]; 4 day after treatment,84.3%
same,Control efficiency (%),[9]; 7 day after treatment,88.5%
same,Control efficiency (%),[9]; 12 days after treatment,75.8%

# — patent publication US8969332B2, “Aryloxy dihalopropenyl ether compounds and uses thereof” (Sinochem Corporation, priority 2011, dated 2015)
